In paper PMC8632988, “Inhibition of SYK and cSrc kinases can protect bone and cartilage in preclinical models of osteoarthritis and rheumatoid arthritis” (Scientific Reports, 2021):
Several values for one entry are separate records, joined by “and”; a condition that tells them apart may be missing. Identical values can stand only once. Like-named read-outs stand apart in the source and are kept apart here.

Test: Pharmacokinetics after single oral administration to rats
Format: in vivo, rat
Conditions: male Wistar rats; for AUCINF / AUClast / Cmax / Terminal t1/2 / concentration at 0.25 h / concentration at 0.5 h / concentration at 1 h / concentration at 2 h / concentration at 4 h / concentration at 8 h / concentration at 24 h / concentration at 48 h: plasma; for concentration at 0.25 h / concentration at 0.5 h / concentration at 1 h / concentration at 2 h / concentration at 4 h / concentration at 8 h / concentration at 24 h / concentration at 48 h: male, Wistar, rat, oral
Experimental: Experiments were performed at ChemPartner, Shanghai, China and approved by Institutional Ethics Committee (IEC) of ChemPartner. Male Wistar 10–12 weeks old rats with body weights of 185–220 g and male New Zealand rabbits with body weights of 2.0–2.3 kg were purchased from Shanghai SLAC Laboratory Animal Co., Ltd. MT-SYK-03 was administered to the three groups of rats (six rats per group) via oral gavage at 10 mL/kg concentration, and in rabbits 5 mL/kg concentration. Blood samples were kept on ice and centrifuged (2000 g, 4 ℃, 5 min) within 15 min post sampling.

[1] = Table S6, 100 mg/kg PO, individual Rat#1-6
[2] = Table S7, 100 mg/kg PO, individual Rat#7-12
[3] = Table S8, 200 mg/kg PO, individual Rat#13-18

With COc1cc(Nc2ncnc(Nc3cc4c(cn3)NC(=O)C(C)(C)O4)n2)cc(OC)c1OC [MT-SYK-03] the Plasma concentration (Table S6, 100 mg/kg PO, 0.25 h, individual Rat#1-6) was 257 ng/mL and 127 ng/mL and 313 ng/mL and 251 ng/mL and 240 ng/mL and 283 ng/mL, the Plasma concentration (Table S6, 100 mg/kg PO, 0.5 h, individual Rat#1-6) was 331 ng/mL and 166 ng/mL and 419 ng/mL and 280 ng/mL and 345 ng/mL and 375 ng/mL and the Plasma concentration (Table S6, 100 mg/kg PO, 1 h, individual Rat#1-6) was 470 ng/mL and 220 ng/mL and 487 ng/mL and 367 ng/mL and 392 ng/mL and 483 ng/mL. For the same compound, the Plasma concentration (Table S6, 100 mg/kg PO, 2 h, individual Rat#1-6) was 529 ng/mL and 209 ng/mL and 501 ng/mL and 372 ng/mL and 256 ng/mL and 359 ng/mL, the Plasma concentration (Table S6, 100 mg/kg PO, 4 h, individual Rat#1-6) was 196 ng/mL and 78.0 ng/mL and 171 ng/mL and 170 ng/mL and 226 ng/mL and 206 ng/mL and the Plasma concentration (Table S6, 100 mg/kg PO, 8 h, individual Rat#1-6) was 47.2 ng/mL and 31.2 ng/mL and 92.6 ng/mL and 41.6 ng/mL and 88.8 ng/mL and 43.5 ng/mL. For the same compound, the Plasma concentration (Table S6, 100 mg/kg PO, 24 h, individual Rat#1-6) was 0.818 ng/mL and BQL (2×) and 17.7 ng/mL and 1.57 ng/mL and 16.5 ng/mL, the Plasma concentration (Table S6, 100 mg/kg PO, 48 h, individual Rat#1-6) was “BQL (4×) and 1.55 ng/mL” and the AUCINF [1] was 2434 ng·h/mL and 971 ng·h/mL and 3948 ng·h/mL and 2253 ng·h/mL and 2452 ng·h/mL and 2451 ng·h/mL. For the same compound, the AUClast [1] was 2423 ng·h/mL and 869 ng·h/mL and 3933 ng·h/mL and 2069 ng·h/mL and 2446 ng·h/mL and 2297 ng·h/mL, the Cmax [1] was 529 ng/mL and 220 ng/mL and 501 ng/mL and 372 ng/mL and 392 ng/mL and 483 ng/mL and the “Terminal t1/2” value [1] was 7.83 h and 2.28 h and 6.60 h and 7.22 h and 2.78 h and 6.45 h. The Plasma concentration (Table S7, 100 mg/kg PO, 8 h, individual Rat#7-12) was 87.7 ng/mL and 152 ng/mL and 64.3 ng/mL and 178 ng/mL and 89.2 ng/mL and 82.6 ng/mL, the Plasma concentration (Table S7, 100 mg/kg PO, 24 h, individual Rat#7-12) was 32.8 ng/mL and 4.94 ng/mL and 6.04 ng/mL and 1.11 ng/mL and 1.56 ng/mL and the Plasma concentration (Table S7, 100 mg/kg PO, 48 h, individual Rat#7-12) was “BQL”. For the same compound, the AUCINF [2] was 4850 ng·h/mL and 3276 ng·h/mL and 4883 ng·h/mL and 4456 ng·h/mL and 3930 ng·h/mL, the AUClast [2] was 4843 ng·h/mL and 3238 ng·h/mL and 4878 ng·h/mL and 4452 ng·h/mL and 3910 ng·h/mL and the Cmax [2] was 1030 ng/mL and 770 ng/mL and 859 ng/mL and 876 ng/mL and 824 ng/mL. The “Terminal t1/2” value [2] was 5.58 h and 4.86 h and 3.71 h and 2.36 h and 2.34 h and 5.52 h, the Plasma concentration (Table S8, 200 mg/kg PO, 48 h, individual Rat#13-18) was “BQL” and the AUCINF [3] was 6063 ng·h/mL and 6845 ng·h/mL and 7115 ng·h/mL and 6299 ng·h/mL and 10096 ng·h/mL. The AUClast [3] was 6055 ng·h/mL and 6836 ng·h/mL and 7107 ng·h/mL and 6076 ng·h/mL and 10087 ng·h/mL, the Cmax [3] was 1430 ng/mL and 1360 ng/mL and 1370 ng/mL and 998 ng/mL and 1320 ng/mL and the “Terminal t1/2” value [3] was 6.31 h and 5.70 h and 2.52 h and 2.40 h and 8.67 h and 4.91 h. It also gave a concentration at 0.25 h (100 mg/kg, Table S6, 100 mg/kg PO, 0.25 h, mean of Rat#1-6, read-out: Plasma concentration, Mean) of 245 ng/mL, a concentration at 0.5 h (100 mg/kg, Table S6, 100 mg/kg PO, 0.5 h, mean of Rat#1-6, read-out: Plasma concentration, Mean) of 319 ng/mL and a concentration at 1 h (100 mg/kg, Table S6, 100 mg/kg PO, 1 h, mean of Rat#1-6, read-out: Plasma concentration, Mean) of 403 ng/mL. The concentration at 2 h (100 mg/kg, Table S6, 100 mg/kg PO, 2 h, mean of Rat#1-6, read-out: Plasma concentration, Mean) was 371 ng/mL, the concentration at 4 h (100 mg/kg, Table S6, 100 mg/kg PO, 4 h, mean of Rat#1-6) was 175 ng/mL and the concentration at 8 h (100 mg/kg, Table S6, 100 mg/kg PO, 8 h, mean of Rat#1-6) was 57.5 ng/mL. For the same compound, the concentration at 24 h (100 mg/kg, Table S6, 100 mg/kg PO, 24 h, mean of Rat#1-6) was 9.15 ng/mL, the concentration at 48 h (100 mg/kg, Table S6, 100 mg/kg PO, 48 h, individual Rat#1-6, read-out: Plasma concentration) was 0.984 ng/mL and the concentration at 48 h (100 mg/kg, Table S6, 100 mg/kg PO, 48 h, mean of Rat#1-6, read-out: Plasma concentration, Mean) was 1.27 ng/mL. For the same compound, the concentration at 0.25 h (100 mg/kg, Table S7, 100 mg/kg PO, 0.25 h, individual Rat#7-12, read-out: Plasma concentration) was 400 ng/mL, the concentration at 0.25 h (100 mg/kg, Table S7, 100 mg/kg PO, 0.25 h, mean of Rat#7-12, read-out: Plasma concentration, Mean) was 415 ng/mL and the concentration at 0.5 h (100 mg/kg, Table S7, 100 mg/kg PO, 0.5 h, individual Rat#7-12, read-out: Plasma concentration) was 716 ng/mL. For the same compound, the concentration at 0.5 h (100 mg/kg, Table S7, 100 mg/kg PO, 0.5 h, mean of Rat#7-12, read-out: Plasma concentration, Mean) was 679 ng/mL, the concentration at 1 h (100 mg/kg, Table S7, 100 mg/kg PO, 1 h, individual Rat#7-12, read-out: Plasma concentration) was 830 ng/mL and the concentration at 1 h (100 mg/kg, Table S7, 100 mg/kg PO, 1 h, mean of Rat#7-12, read-out: Plasma concentration, Mean) was 870 ng/mL. The concentration at 2 h (100 mg/kg, Table S7, 100 mg/kg PO, 2 h, individual Rat#7-12, read-out: Plasma concentration) was 519 ng/mL, the concentration at 2 h (100 mg/kg, Table S7, 100 mg/kg PO, 2 h, mean of Rat#7-12, read-out: Plasma concentration, Mean) was 602 ng/mL and the concentration at 4 h (100 mg/kg, Table S7, 100 mg/kg PO, 4 h, mean of Rat#7-12) was 384 ng/mL. For the same compound, the concentration at 8 h (100 mg/kg, Table S7, 100 mg/kg PO, 8 h, mean of Rat#7-12) was 109 ng/mL, the concentration at 24 h (100 mg/kg, Table S7, 100 mg/kg PO, 24 h, mean of Rat#7-12) was 8 ng/mL and the concentration at 48 h (100 mg/kg, Table S7, 100 mg/kg PO, 48 h, mean of Rat#7-12, read-out: Plasma concentration, Mean) was 1.79 ng/mL. The concentration at 0.25 h (200 mg/kg, Table S8, 200 mg/kg PO, 0.25 h, individual Rat#13-18, read-out: Plasma concentration) was 489 ng/mL, the concentration at 0.25 h (200 mg/kg, Table S8, 200 mg/kg PO, 0.25 h, mean of Rat#13-18, read-out: Plasma concentration, Mean) was 425 ng/mL and the concentration at 0.5 h (200 mg/kg, Table S8, 200 mg/kg PO, 0.5 h, individual Rat#13-18, read-out: Plasma concentration) was 858 ng/mL. For the same compound, the concentration at 0.5 h (200 mg/kg, Table S8, 200 mg/kg PO, 0.5 h, mean of Rat#13-18, read-out: Plasma concentration, Mean) was 892 ng/mL, the concentration at 1 h (200 mg/kg, Table S8, 200 mg/kg PO, 1 h, individual Rat#13-18, read-out: Plasma concentration) was 984 ng/mL and the concentration at 1 h (200 mg/kg, Table S8, 200 mg/kg PO, 1 h, mean of Rat#13-18, read-out: Plasma concentration, Mean) was 1220 ng/mL.
